Paper PMC6222828, “Synthesis of Gemcitabine-Threonine Amide Prodrug Effective on Pancreatic Cancer Cells with Improved Pharmacokinetic Properties” (Molecules : A Journal of Synthetic Chemistry and Natural …, 2018)
Entries after “also recorded” stand apart in the source; their conditions may differ. Like-named read-outs stand apart in the source and are kept apart here.

What was measured:
[1] = Systemic (intravenous) pharmacokinetics in rats; format: in vivo, rat; conditions: 4 mg/kg i.v.
Procedure: This study was performed in male Sprague-Dawley (SD) rats (Orient Bio, Sungnam, Korea), as described previously. Rats were provided water and food ad libitum and maintained under a 12:12-h light/dark cycle. On the experimental day, a femoral vein and contralateral artery were cannulated using an Intramedic™ polyethylene tube (PE-50; Becton Dickinson Diagnostics, Sparks, MD, USA) under Zoletil induced anesthesia (50 mg/kg intramuscularly; Virbac, Carros, France). For the intravenous pharmacokinetic study, Gem-Thr or gemcitabine solution were injected into a femoral vein at 4 mg/kg. Blood (~0.22 mL) was taken from the femoral artery at 0 (blank), 1, 5, 15, 30, 60, 120, 240, 480, 720, or 1440 min. To prevent blood loss, the same volume of normal saline was injected intravenously at each time point. Plasma was obtained immediately centrifugation and then stored at −80 °C prior to LC-MS/MS.
The pharmacokinetic parameters of Gem-Thr, gemcitabine, Gem-Thr plus gemcitabine, and free gemcitabine were calculated by non-compartmental analysis using WinNonlin (Version 3.1; Pharsight, Mountain View, CA, USA), as described previously (Park et al., 2016).
To determine concentrations of Gem-Thr and gemcitabine in rat plasma, plasma samples were deproteinized by adding two volumes of acetonitrile containing internal standard (phenacetin). After mixing, mixtures were centrifuged at 14,000× g for 10 min.
Aliquots of supernatants (2-µL) were injected into the LC-MS/MS system, which consisted of an Agilent HPLC and an Agilent 6490 QQQ mass spectrometer equipped with an ESI+ Agilent Jet Stream ion source (Agilent Technologies, Santa Clara, CA, USA). The separation of each drug and IS from endogenous plasma substances was achieved on a Synergi Polar-RP 80A column (150 × 2.0 mm, 4 μm; Phenomenex, Torrance, CA, USA). The mobile phase consisted of 0.1% formic acid and acetonitrile (20:80, v/v) at a flow rate of 0.2 mL/min. The column and autosampler tray were maintained at 25 and 4 °C, respectively. Gemcitabine, Gem-Thr, and the IS were quantified by multiple-reaction monitoring (MRM) in positive electrospray ionization mode. Respective precursor-to-product ion transitions were as follows: Gemcitabine, 264.1→112.1, Gem-Thr, 387.1→343.2, and IS (phenacetin), 180.2→162.2. Data acquisition was performed using Mass Hunter software (ver. A.02.00; Agilent Technologies).

[2] = 37 °C
Procedure: The metabolic stability of Gem-Thr was examined in the presence of PBS (pH 7.4), rat plasma, or liver microsomes as described previously (Maeng et al., 2014). Fresh rat plasma was obtained from sacrificed SD rats (260–280 g) after centrifuging blood (12,000× g, 15 min). Rat liver microsomes were obtained from BD Gentest. Gem-Thr (10 µM) was spiked into PBS, blank rat plasma, or liver microsomes (1 mg protein/mL) and incubated in a shaking water bath at 37 °C for 8 h. Aliquots (50-µL) were taken after 0, 15, 30, 60, 120, 240, […], or 480 min of incubation, immediately pretreated with ice-cold methanolic solution including the internal standard, vortexed for 3 min and centrifuged (12,000× g, 10 min). Supernatants were stored at −80 °C until required for analysis.

BxPC-3 cells [3] = test: MTT cytotoxicity assay in BxPC-3 cells; format: cell-based, Human; conditions: 48 h
Procedure: (§1) Figure 3 Growth-inhibitory effects of gemcitabine and of its amino-acid-conjugated derivatives on BxPC-3, MIAPaCa-2, A549, MDA-MB-231 B16 cells after exposure to 1 μM concentrations for 48 h, as estimated by MTT assay (mean ± SD, n = 3). Experiments were performed three times independently. * p < 0.05, compared with free gemcitabine group.
(§2) Human pancreatic cancer cells (MIAPaCa-2, BxPC-3 and AsPC-1), lung cancer cell lines (A549), human breast cancer cell lines (MDA-MB-231) and melanoma cell lines (B16) were purchased from the American Type Culture Collection (Manassas, VA, USA). MIAPaCa-2 and B16-F10 cells were cultured in Dulbecco’s modified Eagle’s medium (DMEM) supplemented with 10% heat-inactivated fetal bovine serum (FBS) and 1% penicillin/streptomycin. Aspc-1, BxPC-3 MDA-MB-231 and A549 cells were cultured in Roswell Park Memorial Institute 1640 (RPMI-1640) medium supplemented with 10% FBS and 1% penicillin/streptomycin. FBS and all other reagents used for cell culture were purchased from Invitrogen (Carlsbad, CA, USA). Cultures were maintained at 37 °C in 95% air /5% CO2 humidified atmosphere.
Cancer cell viabilities after treatment with gemcitabine or its derivatives were quantified using MTT assay as described previously. Briefly, cells were seeded onto 96-well plates at 3 × 10^3 cells per well and incubated at 37 °C. The cells were treated with each compound at indicated concentrations for 48 h and then, 20 μL of MTT labeling mixture was added to each well. After incubation for 4 h, optical densities (OD) were determined using a microplate reader by measuring absorbances at 540 nm.

MIAPaCa-2 cells = test: MTT cytotoxicity assay in MIAPaCa-2 cells; format: cell-based, Human; conditions: 1 μM, 48 h
Procedure: as §1, §2
(§3) Cancer cell viabilities after treatment with gemcitabine or its derivatives were quantified using MTT assay as described previously. […] After incubation for 4 h, optical densities (OD) were determined using a microplate reader by measuring absorbances at 540 nm.

BxPC-3 cells [4] = test: Apoptosis: cleaved PARP western blot and TUNEL assay; format: cell-based, Human; conditions: 1 µM, 24 h treatment
Procedure: BxPC-3 cells were washed with DPBS and lysed with RIPA buffer (Biosesang, Seongnam, Korea) containing 150 mM NaCl, 1% Triton X-100, 1% sodium deoxycholate, 0.1% SDS, 50 mM Tris-HCl (pH 7.5), 2 mM EDTA (pH 8.0), and Xpert protease inhibitor and phosphatase inhibitor Cocktail (GenDEPOT, Barker, TX, USA). Proteins were separated by 8% or 15% SDS-PAGE (sodium dodecylsulfate-polyacrylamide gel electrophoresis) and transferred to polyvinylidene fluoride (PVDF) membranes. […] Antibody binding was detected using an enhanced chemiluminescence (ECL) reagent (Bio-Rad, Hercules, CA, USA) using primary antibodies specific to proteins of interest, and proteins were detected using X-ray film and enhanced chemiluminescence reagent. Primary antibodies against the following were used: LAT-1, cleaved PARP (Cell Signaling Technologies, Beverly, MA, USA), GAPDH (Abcam, Cambridge, MA, USA), and β-actin (Sigma Aldrich, St. Louis, MO, USA). Secondary antibodies were purchased from Cell signaling technology.
TUNEL assay was conducted with the ApopTag® Peroxidase In Situ Apoptosis Detection Kit (Merck Millipore, Burlington, MA, USA). Briefly, BxPC-3 cells were seeded onto 18-mm cover glasses in medium and grown to ~70% confluence over 24 h.

[5] = tested on: MDA-MB-231 (breast cancer cells); test: MTT cytotoxicity assay in MDA-MB-231 cells; format: cell-based, human; conditions: 1 μM, 48 h
Procedure: as §1, §2, §3

A549 (lung cancer cells) = test: MTT cytotoxicity assay in A549 cells; format: cell-based; conditions: 1 μM, 48 h
Procedure: as §1, §2, §3

B16 (melanoma cells) = test: MTT cytotoxicity assay in B16 cells; format: cell-based; conditions: 1 μM, 48 h
Procedure: Human pancreatic cancer cells (MIAPaCa-2, BxPC-3 and AsPC-1) [21], lung cancer cell lines (A549) [22], human breast cancer cell lines (MDA-MB-231) [23] and melanoma cell lines (B16) [24] were purchased from the American Type Culture Collection (Manassas, VA, USA). MIAPaCa-2 and B16-F10 cells were cultured in Dulbecco’s modified Eagle’s medium (DMEM) supplemented with 10% heat-inactivated fetal bovine serum (FBS) and 1% penicillin/streptomycin. Aspc-1, BxPC-3 MDA-MB-231 and A549 cells were cultured in Roswell Park Memorial Institute 1640 (RPMI-1640) medium supplemented with 10% FBS and 1% penicillin/streptomycin. […] Cultures were maintained at 37 °C in 95% air /5% CO2 humidified atmosphere.
Cancer cell viabilities after treatment with gemcitabine or its derivatives were quantified using MTT assay as described previously [25]. Briefly, cells were seeded onto 96-well plates at 3 × 10^3 cells per well and incubated at 37 °C. The cells were treated with each compound at indicated concentrations for 48 h and then, 20 μL of MTT labeling mixture was added to each well. After incubation for 4 h, optical densities (OD) were determined using a microplate reader by measuring absorbances at 540 nm.

[6] = parameters: method as in PMID 18519786; conditions: in man; cited from earlier work
[7] = parameters: method as in PMID 19860433; conditions: cited from earlier work
[8] = analyte = administered compound

C[C@@H](O)[C@H](N)C(=O)Nc1ccn([C@@H]2O[C@H](CO)[C@@H](O)C2(F)F)c(=O)n1 [Gem-Thr, (2S,3R)-2-Amino-N-(1-((2R,4R,5R)-3,3-difluoro-4-hydroxy-5-(hydroxylmethyl)tetra-hydrofuran-2-yl)-2-oxo-1,2-dihydropyrimidin-4-yl)-3-hydroxybutanamide2-(4-((pyridin-3-ylmethyl)amino)quinazolin-2-yl)phenol]
AUC of sum of Gem-Thr and gemcitabine (metabolite) versus gemcitabine alone [1]: 3.62 fold | AUC [1, 8]: 1713.85 ± 1082.40 µg·min/mL | CL [1, 8]: 2.85 ± 1.33 mL/min/kg | MRT [1, 8]: 3.953 ± 0.3478 h | Terminal t1/2 [1, 8]: 3.9363 ± 0.849 h | Vss [1, 8]: 0.66235 ± 0.2814 L/kg | increase of systemic exposure (AUC of gemcitabine) versus free gemcitabine ([1]; formed gemcitabine vs free gemcitabine): 1.83 fold | fraction of Gem-Thr metabolized in rat plasma ([2]; 10 µM, after 8 h): 20% | metabolic stability in rat plasma ([2]; 10 µM, up to 8 h): metabolically stable | stability in PBS ([2]; PBS pH 7.4, 10 µM, up to 8 h): metabolically stable | metabolic stability in rat liver microsomal fractions ([2]; rat liver microsomes 1 mg protein/mL, 10 µM, up to 8 h): metabolically stable | anti-cancer effect (cytotoxicity) (BxPC-3 cells [3]; 1 μM): most potent anticancer effect; also recorded: more effective than free gemcitabine | cell viability (BxPC-3 cells [3]; 1 μM): 44.7% | anti-cancer effect (cytotoxicity) (MIAPaCa-2 cells): most potent anticancer effect; also recorded: more effective than free gemcitabine | apoptosis (cleaved PARP, TUNEL positive cells) (BxPC-3 cells [4]): induced apoptosis significantly

Nc1ccn([C@@H]2O[C@H](CO)[C@@H](O)C2(F)F)c(=O)n1 [gemcitabine, 2′-2′-difluorodeoxycytidine]
anti-cancer effect versus vehicle treated controls [5]: neither gemcitabine nor gemcitabine derivatives had any significant anti-cancer effect | clearance ([1]; male, Sprague-Dawley, rat, plasma, iv, analyte = administered compound): 4.23 ± 0.23 mL/min/kg | AUC ([1]; male, Sprague-Dawley, rat, plasma, iv, analyte = administered compound, read-out: AUC (converted)): 948 µg·min/mL | MRT ([1]; male, Sprague-Dawley, rat, plasma, iv, analyte = administered compound, read-out: MRT (converted)): 9.7 h | half-life ([1]; male, Sprague-Dawley, rat, plasma, iv, analyte = administered compound, read-out: Terminal t1/2): 8.88 ± 2.96 h | Vd ([1]; male, Sprague-Dawley, rat, plasma, iv, analyte = administered compound, read-out: Vss): 2.48 ± 0.867 L/kg | anti-cancer effect versus vehicle treated controls (A549 (lung cancer cells)): neither gemcitabine nor gemcitabine derivatives had any significant anti-cancer effect | anti-cancer effect (cytotoxicity) (B16 (melanoma cells)): significant anti-cancer effects | anti-cancer effect (cytotoxicity) (BxPC-3 cells [3]; 1 μM): significant anti-cancer effects | viability at 1 µM (BxPC-3 cells [3]; Homo sapiens, read-out: cell viability): 54.1% | anti-cancer effect (cytotoxicity) (MIAPaCa-2 cells): significant anti-cancer effects | half-life [6]: 9 min | apoptosis (cleaved PARP, TUNEL positive cells) (BxPC-3 cells [4]): induced apoptosis significantly | oral bioavailability (BA) [7]: low oral bioavailability
